From patent US6706762B1, “Methods for the use of inhibitors of co-repressors for the treatment of neoplastic diseases” (The Salk Institute for Biological Studies, priority 1997, dated 2004)

Columns and labels:
GAL-PLZF-RARα = GAL-PLZF-RARα activation of UAS reporter, transient transfection in CV1 cells; format: cell-based; conditions: for reporter activation in combination with ATRA: TSA 150 nM or NaB 5 mM plus ATRA; for reporter activation in combination with ATRA / relief of repression by GAL-PLZF-RARα: 16 hours; for relief of repression by GAL-PLZF-RARα: TSA 150 nM or NaB 5 mM
Procedure: (§1) GAL4-DBD fusions of RARα or PLZF-RARα were transfected into CV1 cells and examination of their RA-activation on UAS reporters. CV1 cells were transfected using DOTAP transfection reagents (Boehringer Mannheim). Luciferase activity of each sample was normalized against internal control β-galactosidase activity (Nagy et al. (1997) Cell 89:373-380). Each transfection was carried out in triplicate and repeated at least three times.

[1] = system: PML-RARα expressing HL-60 cells; conditions: Rousselot et al. (1994); cited from earlier work
[2] = biological target: T1, SMRT associated with RARα (Homo sapiens, UniProt P10276); test: Immunoprecipitation of HA-RARα from CV1 cell extracts, immunoblot for SMRT; format: cell-based; conditions: ATRA (5 μM), 4° C. overnight
T1 construct: HA-RARα (amino acids 61-462); expressed in transfected cells; host or cells: CV1 cells
T1 sequence (P10276 61-462): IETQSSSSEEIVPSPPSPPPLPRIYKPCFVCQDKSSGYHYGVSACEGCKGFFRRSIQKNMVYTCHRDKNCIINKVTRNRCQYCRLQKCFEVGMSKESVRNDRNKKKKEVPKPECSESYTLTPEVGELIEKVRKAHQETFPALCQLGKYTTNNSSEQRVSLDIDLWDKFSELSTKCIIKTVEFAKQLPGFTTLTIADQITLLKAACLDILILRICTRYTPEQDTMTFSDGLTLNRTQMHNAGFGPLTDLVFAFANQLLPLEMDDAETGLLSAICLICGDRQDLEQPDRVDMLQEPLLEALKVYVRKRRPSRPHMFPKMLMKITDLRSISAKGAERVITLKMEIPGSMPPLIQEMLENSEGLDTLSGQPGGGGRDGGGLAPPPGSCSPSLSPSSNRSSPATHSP
Procedure: (§2) For in vitro immunoprecipitation, in vitro translated proteins were incubated together with 10 μg/μl anti-HA antibody in G buffer at 4° C. for 60 min. Immunocomplexes were isolated by incubation with protein A-agarose, washed four times with G buffer, analyzed by SDS-PAGE and visualized by autoradiography. For in vivo immunoprecipitation, 2×10^7 CV1 cells were transfected with 10 μg of appropriate plasmids and harvested in ice-cold PBS, 24 hours after transfection. Cells were lysed by hypotonic shock and the nuclear pellet was resuspended in IP buffer (PBS, 10 mM NaF, 25 mM β-glycerolphosphate, 0.1% NP-40, 0.5 mM PMSF plus protease inhibitors) and disrupted by mild sonication.
(§3) Immunocomplexes were resolved by SDS-PAGE and analyzed by immunoblotting.

[3] = system: PLZF-RARα / GST-SMRT-PID2; test: GST-SMRT-PID2 affinity matrix, binding of radiolabelled PLZF-RARα; conditions: presence or absence of 5 μM ATRA
Procedure: (§4) Recombinant proteins were obtained as follows and in vitro protein interaction assays were carried out as follows. GST-PLZF and GST-SMRT fusion proteins were produced from E. Coli DH5a or BL-21 cells and purified by glutathione-Sepharose 4B affinity chromatography. Bound proteins were eluted with 15 mM glutathione. Purified proteins were then reloaded on glutathione-Sepharose 4B beads and used as affinity matrices. Protein interaction assays were performed in G buffer (20 mM Tris, 7.9, 150 mM KCl, 1 mM EDTA, 4 mM MgCl2, 0.26 NP-40, 10% Glycerol) at 4° C. for 60 min with gentle rocking. The beads were washed five times with G buffer and bounded proteins were eluted in SDS sample buffer, separated by SDS-PAGE and visualized by autoradiography.

NB4 cells [4] = test: Nitroblue Tetrazolium (NBT) reduction differentiation assay in NB4 cells; format: cell-based, human; conditions: three days
Procedure: (§5) This prediction was tested utilizing the NB4 cell line established from a patient with t(15;17) APL. NB4, NB4-R4 (Shao et al. (1997) Blood 89:4282-4289), HL-60 and HL-60R (Robertson et al. (1992) Blood 80:1885-1889) cells were cultured in RPMI with 10% FBS. […] Differentiation assays with RA and/or TSA were carried out as previously described (Nagy et al. (1997) Cell 89:373-380). NBT assay has been described (Nagy et al. (1995) Mole. Cell. Biol. 15:3540-3551).

[5] = system: SMRT / DNA-bound PML-RARα; test: Gel mobility shift assay, GST-SMRT-IDII with PML-RARα homodimers on DR5 elements; format: binding; conditions: compared with RARα/RXRα heterodimers
Excerpt: The protein-DNA complexes were then resolved on a 4.5% native polyacrylamide gel and visualized by autoradiography.

PML-RARα/SMRT complex = test: GST-SMRT (amino acids 1,073-1,330) affinity matrix, radiolabelled PML-RARα; format: binding; conditions: ATRA
[6] = system: SMRT associated with PLZF-RARα; test: Immunoprecipitation of HA-PLZF-RARα from CV1 cell extracts, immunoblot for SMRT; format: cell-based; conditions: ATRA (5 μM), 4° C. overnight
Procedure: as §2, §3

RARα / SMRT = biological target: T2, RARα / SMRT (Homo sapiens, UniProt P10276); test: GST-SMRT (amino acids 1,073-1,330) affinity matrix, radiolabelled RARα; format: binding; conditions: ATRA
T2 construct: made in house; host or cells: in vitro translated receptor; GST-SMRT from E. coli
T2 sequence (P10276 1-462): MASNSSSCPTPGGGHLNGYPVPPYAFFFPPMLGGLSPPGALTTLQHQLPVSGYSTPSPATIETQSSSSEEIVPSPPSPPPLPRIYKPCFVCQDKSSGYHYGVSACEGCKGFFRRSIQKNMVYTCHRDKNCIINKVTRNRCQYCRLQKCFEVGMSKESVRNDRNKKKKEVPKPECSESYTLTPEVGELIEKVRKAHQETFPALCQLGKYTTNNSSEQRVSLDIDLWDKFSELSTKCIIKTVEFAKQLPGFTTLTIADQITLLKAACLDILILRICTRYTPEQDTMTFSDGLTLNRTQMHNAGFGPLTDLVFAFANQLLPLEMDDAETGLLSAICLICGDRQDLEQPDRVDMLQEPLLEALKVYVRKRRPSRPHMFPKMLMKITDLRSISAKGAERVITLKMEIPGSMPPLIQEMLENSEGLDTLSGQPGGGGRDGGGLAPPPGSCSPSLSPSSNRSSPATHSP

RARα / GST-SMRT-IDII = biological target: T3, RARα / GST-SMRT-IDII (Homo sapiens, UniProt P10276); test: GST-SMRT-IDII affinity matrix, binding of radiolabelled RARα; conditions: presence of 5 μM ATRA
T3 construct: made in house; host or cells: 35S-labelled receptor (in vitro translation); GST-SMRT from E. coli DH5a or BL-21
T3 sequence (P10276 1-462): T2 sequence (P10276 1-462)
Procedure: as §4

[7] = system: PLZF-RARα / GST-SMRT-IDII; test: GST-SMRT-IDII affinity matrix, binding of radiolabelled PLZF-RARα; conditions: presence of 5 μM ATRA
Procedure: as §4

[8] = system: myeloid leukemia (HL-60) cells; test: Differentiation of HL-60 cells, CD14 and CD11b expression by flow cytometry; format: cell-based, human; conditions: 72 hours
Procedure: If HDAC is a critical component of receptor function then addition of a deacetylase inhibitor, such as Trichostatin A (TSA) (Taunton et al., Science 272:408-411 (1996)) would be expected to relieve transcriptional repression, resulting in a promoter that is likely to be more sensitive to the addition of hormone. This prediction was tested by studying the effect of TSA on the differentiation of myeloid leukemia (HL-60) cells (Collins, Blood 70:1233-1244 (1987)) following a high dose ( 100 nM) 9-cis RA treatment. A hallmark of this process is the appearance of cell surface differentiation markers CD14 and CD11b (Brackman et al., Leukemia Research 19:57-64 (1995)). HL-60 cells cultured in RPMI 10% FBS were plated at a density of 2×10^5/ml in RPMI 2% FBS treated with 9-cis RA (Sigma) and/or Trichostatin A (TSA) (Waco Pure Chemical Industries) for 72 hours and then incubated with R-phycoerythrin (RPE) conjugated anti-human C3bi receptor (CD11b) (DAKO) or RPE-conjugated monoclonal mouse anti-human CD 14 (DAKO) antibodies for 60 minutes on ice. Cells were washed twice with PBS 0.5% BSA and analyzed on a FACScan flow cytometer (Becton Dickinson). The expression of cell surface antigens (CD11b and CD14) were monitored.

NB4-R4 cells = test: NBT reduction differentiation assay in retinoid-resistant NB4-R4 cells; format: cell-based, human; conditions: three days
Procedure: as §5

NB4 cells [9] = test: CD18 expression in NB4 cells by flow cytometry; format: cell-based, human; conditions: TSA plus 9-cis RA, three days
Procedure: as §5
For flow cytometry analysis of CD18 expression, the cells were incubated with a FITC-conjugated anti-CD18 antibody (DAKO) in a dilution of 1:500 in PBS (0.5% BSA) followed by extensive washing before analyzing on a FACSCAN flow cytometer (Becton Dickinson). Although histone deacetylase inhibitors are known to have pleiotropic effects on global gene expression, the fact that CD18 is a direct retinoid target gene (Agura et al. (1992) Blood 79:602-609) supports the notion that histone deacetylases are integral components of PML-RARα mediated differentiation. […] This would explain why the inhibition of SMRT-mediated repression by TSA increases the retinoid sensitivity of NB4 cells.

PLZF-RARα = test: TK-βRARE×2-Luc reporter, transcriptional inhibition by PLZF-RARα in CV1 cells; format: cell-based; conditions: NaB 5 mM, 100 nM ATRA
Procedure: as §1
(§6) It was then sought to determine whether similar effects can be seen on native RA-response elements. As shown previously, exogenous expression of PLZF-RARα or PML-RARα inhibits RA-activation mediated by endogenous RARs on βRARE reporters (FIG. 6(C); de Thé et al. (1991) Cell 66:675-684; Kastner et al. (1992) EMBO J. 11:629-642; Chen et al. (1994) Proc. Natl Acad. Sci. USA 91:1178-1182; Licht et al. (1996) Oncogene 12:323-336; Rousselot et al. (1994) Oncogene 9:545-551).

PML-RARα = test: TK-βRARE×2-Luc reporter, transcriptional inhibition by PML-RARα in CV1 cells; format: cell-based; conditions: NaB 5 mM, 100 nM ATRA
Procedure: as §1, §6

CC1=C(/C=C/C(C)=C/C=C/C(C)=C/C(=O)O)C(C)(C)CCC1 [ATRA, all-trans retinoic acid]
response of GAL-PLZF-RARα to ATRA (reporter activation) (GAL-PLZF-RARα; ATRA alone, 36 hours, compared to GAL-RARα): poorly responded
ATRA concentration up to which cells are resistant [1]: up to 10^−7 M
amount of SMRT which associates with RARα [2]: greatly reduced
binding of PLZF-RARα to GST-SMRT-PID2 [3]: ligand-insensitive
percentage of NBT-positive cells (NB4 cells [4]; 1 mM ATRA alone, parental NB4 cells): 23%
ATRA concentration required to dissociate SMRT from DNA-bound PML-RARα versus RAR [5]: substantially higher concentrations
effect on PML-RARα/SMRT complex (PML-RARα/SMRT complex): only weakly affected
amount of SMRT associated with PLZF-RARα [6]: largely unaffected
dissociation of SMRT from RARα (RARα / SMRT): effectively dissociated
binding of RARα to GST-SMRT-IDII (RARα / GST-SMRT-IDII): significantly reduced
binding of PLZF-RARα to GST-SMRT-IDII [7]: significantly reduced

CC1=C(/C=C/C(C)=C\C=C\C(C)=C\C(=O)O)C(C)(C)CCC1 [9-cis RA, 9-cis retinoic acid]
CD14 expression ([8]; suboptimal dose (10 nM) of 9-cis RA alone): modest stimulation

CC(/C=C/C(=O)NO)=C\[C@@H](C)C(=O)c1ccc(N(C)C)cc1 [TSA, Trichostatin A]
reporter activation in combination with ATRA (GAL-PLZF-RARα): synergized with ATRA
relief of repression by GAL-PLZF-RARα (GAL-PLZF-RARα): relieved repression
percentage of NBT-positive cells (NB4-R4 cells; ATRA and 200 nM TSA): 18%
hormone-induced differentiation (NBT-positive cells) (NB4-R4 cells; TSA plus ATRA): partially restored hormone-induced differentiation
RA-induced expression of early differentiation marker CD18 (NB4 cells [9]): strong stimulatory effect
differentiation effect of ATRA (NBT-positive cells) (NB4 cells [4]; TSA 50 nM plus ATRA at all concentrations tested): dramatically enhanced
differentiation (NBT-positive cells) (NB4 cells [4]; TSA (50 nM) alone): no effect
CD14 expression ([8]; 100 nM TSA alone): minimal effect
CD14 expression ([8]; TSA plus 10 nM 9-cis RA, compared with 100 nM 9-cis RA): dramatic enhancement
CD14 expression ([8]; TSA plus high dose (100 nM) 9-cis RA): enhanced
CD11b expression ([8]; combination of TSA and 9-cis RA): cooperative at both high and low doses
CD11b expression ([8]; low doses of TSA alone): partially activated gene expression

CCCC(=O)[O-].[Na+] [NaB, sodium butyrate]
reporter activation in combination with ATRA (GAL-PLZF-RARα): synergized with ATRA
relief of repression by GAL-PLZF-RARα (GAL-PLZF-RARα): relieved repression
RA activation of βRARE reporter in the presence of PLZF-RARα (PLZF-RARα): restore nearly full RA activation
relief of transcriptional inhibition by PML-RARα on βRARE reporter (PML-RARα): partially, relieves transcriptional inhibition
